Key:
[1] = test system: ATF4 in thapsigargin stimulated CCRF-CEM cells (PERK); assay: CCRF-CEM thapsigargin (TG) ATF4 ELISA; format: cell-based; settings: Homo sapiens, 1 μM thapsigargin
Method: CCRF-CEM leukemia cells (catalog #CCL-116) were obtained from the American Type Culture Collection (ATTC, Manassas, VA). Briefly, cells were grown in RPMI-1640 medium supplemented with 10% heat-inactivated fetal bovine serum (Invitrogen, Carlsbad, CA) and 1% Penicillin/Streptomycin/L-Glutamine at 37° C., 5% CO2, and 95% humidity. Cells were expanded until reaching one million cells per mL at which time they were subcultured or harvested for assay use. One million five hundred thousand cells per well in 1 mL complete growth medium were dispensed into 12-well plates and incubated overnight. A serial dilution of test compound was added and cells were incubated at 37° C., 5% CO2, and 95% for three hours, then 1 μM thapsigargin was added and cells were incubated for an additional hour at 37° C., 5% CO2, and 95%. Cells were lysed then ATF4 levels were measured using an ELISA assay (Proteintech, Rosemont, IL). Absorbance was measured at 450 nm and 544 nM using a Synergy2 or equivalent reader (Biotek, Winooski VT). Data was analyzed using PRISM software (Graphpad, San Diego, CA) to calculate IC50 values.

CCRF-CEM leukemia cells = assay: CCRF-CEM ASNase cell proliferation assay; format: cell-based; settings: Homo sapiens, 1 mU/mL ASNase, 72 h
Method: CCRF-CEM leukemia cells (catalog #CCL-116) were obtained from the American Type Culture Collect (ATTC, Manassas, VA). Cells were grown in RPMI-1640 medium supplemented with 10% heat-inactivated fetal bovine serum (Invitrogen, Carlsbad, CA) and 1% Penicillin/Streptomycin/L-Glutamine at 37° C., 5% CO2, and 95% humidity. Cells were expanded until reaching one million cells per mL at which time they are subcultured or harvested for assay use. Ten thousand cells per well in 200 μL RPMI-1640 supplemented with 10% heat-inactivated fetal bovine serum and 1% Penicillin/Streptomycin were dispensed into a 96-well black clear bottom plate. A serial dilution of test compound and 1 mU/mL ASNase was added in triplicate and plates were incubated for 72 h at 37° C., 5% CO2, and 95% humidity. At the end of the incubation, 40 μL of a […] solution of resazurin (Sigma, St. Louis, MO) in PBS was added to each well of the plate and plates were incubated for an additional 6 h at 37° C., 5% CO2, and 95% humidity. Plates were read on a Synergy2 or equivalent reader (Biotek, Winooski VT) using an excitation of 540 nm and an emission of 600 nm. Data was analyzed using GraphPad Prism software (GraphPad, San Diego, CA) to calculate IC50 values.

GCN2 kinase = GCN2 kinase (Homo sapiens (Human), UniProt Q9P2K8); assay: Biochemical assay for GCN2 (TR-FRET kinase activity); settings: 1 mM ATP
Chain of GCN2 kinase (Q9P2K8 whole entry): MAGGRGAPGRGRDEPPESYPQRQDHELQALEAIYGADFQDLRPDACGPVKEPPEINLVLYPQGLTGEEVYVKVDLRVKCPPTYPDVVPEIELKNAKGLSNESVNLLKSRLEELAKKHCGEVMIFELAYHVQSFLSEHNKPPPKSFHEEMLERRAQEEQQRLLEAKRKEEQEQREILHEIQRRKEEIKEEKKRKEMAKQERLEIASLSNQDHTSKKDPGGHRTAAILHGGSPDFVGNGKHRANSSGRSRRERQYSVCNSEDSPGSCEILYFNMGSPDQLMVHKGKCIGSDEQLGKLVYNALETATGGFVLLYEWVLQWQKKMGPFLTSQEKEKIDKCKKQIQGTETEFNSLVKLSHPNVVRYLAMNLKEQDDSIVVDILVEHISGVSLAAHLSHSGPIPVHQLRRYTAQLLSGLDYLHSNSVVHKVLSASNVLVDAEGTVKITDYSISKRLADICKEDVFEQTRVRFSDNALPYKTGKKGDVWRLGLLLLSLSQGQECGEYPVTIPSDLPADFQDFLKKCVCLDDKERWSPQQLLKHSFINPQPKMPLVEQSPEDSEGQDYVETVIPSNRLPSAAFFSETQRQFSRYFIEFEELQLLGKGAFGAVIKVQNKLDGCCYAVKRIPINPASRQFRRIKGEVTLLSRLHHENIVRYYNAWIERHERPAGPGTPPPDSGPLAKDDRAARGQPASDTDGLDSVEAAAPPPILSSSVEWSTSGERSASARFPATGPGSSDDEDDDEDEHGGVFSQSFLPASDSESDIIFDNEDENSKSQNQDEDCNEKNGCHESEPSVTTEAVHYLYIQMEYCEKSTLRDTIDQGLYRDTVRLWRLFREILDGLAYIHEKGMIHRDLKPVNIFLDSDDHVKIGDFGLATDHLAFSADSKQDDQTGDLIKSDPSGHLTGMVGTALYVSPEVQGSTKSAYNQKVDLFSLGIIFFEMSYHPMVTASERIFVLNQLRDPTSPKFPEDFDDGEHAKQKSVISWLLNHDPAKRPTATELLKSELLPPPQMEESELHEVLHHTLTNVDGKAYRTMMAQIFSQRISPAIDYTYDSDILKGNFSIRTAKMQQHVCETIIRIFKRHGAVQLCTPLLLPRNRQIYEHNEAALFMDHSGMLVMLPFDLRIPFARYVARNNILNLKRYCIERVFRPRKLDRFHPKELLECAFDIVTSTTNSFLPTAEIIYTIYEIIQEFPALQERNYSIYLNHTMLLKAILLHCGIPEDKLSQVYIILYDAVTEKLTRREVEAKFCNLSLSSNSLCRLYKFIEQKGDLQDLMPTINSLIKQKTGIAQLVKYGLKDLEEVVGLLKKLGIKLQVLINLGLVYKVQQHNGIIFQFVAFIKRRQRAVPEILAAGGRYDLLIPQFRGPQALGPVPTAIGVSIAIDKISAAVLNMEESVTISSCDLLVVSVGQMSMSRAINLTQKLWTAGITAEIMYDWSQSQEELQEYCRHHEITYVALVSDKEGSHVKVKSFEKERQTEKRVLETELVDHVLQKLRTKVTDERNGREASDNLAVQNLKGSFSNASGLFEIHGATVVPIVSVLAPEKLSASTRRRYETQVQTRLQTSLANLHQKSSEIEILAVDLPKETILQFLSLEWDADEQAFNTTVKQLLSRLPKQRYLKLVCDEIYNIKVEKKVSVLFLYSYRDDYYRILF
Method: Activity of GCN2 kinase was determined using a TR-FRET kinase activity assay (e.g. Riddle et al. Analytical Biochemistry (2006) 356(1) 108-116). Assays were conducted in 384-well plates (13 μL assay volume) using 2 nM GCN2 (Carna Biosciences), 130 nM GFP-EIf2α (Invitrogen), 0.2 mg/mL E. coli tRNA (sigma) and 1 mM ATP in kinase buffer (Invitrogen). Inhibition of GCN2 was measured by adding serial diluted test compound (final assay concentration of 0.5% DMSO) followed by a 3-hour incubation. Tb-peIF2α (pSer52) antibody (Invitrogen) (2 nM final assay concentration) in kinase buffer containing EDTA (final assay concentration of 20 mM) was added. After a 60 min incubation at room temperature, TR-FRET was monitored using an excitation wavelength of 340 nm and emission wavelengths of 490 nm and 520 nm. The emission ratio (520/490) at each compound concentration of was converted to percent inhibition using controls (i.e., reaction with no test compound and reaction with a known inhibitor) and IC50 values were calculated by fitting a four-parameter sigmoidal curve to the data using Prism (GraphPad software).

PERK enzyme = PERK enzyme (Homo sapiens (Human), UniProt Q9NZJ5); assay: Biochemical assay for PERK (coupled pyruvate kinase/lactate dehydrogenase); settings: 1 mM ATP
Chain of PERK enzyme (Q9NZJ5 other isoform, or with tags, fused parts or gaps): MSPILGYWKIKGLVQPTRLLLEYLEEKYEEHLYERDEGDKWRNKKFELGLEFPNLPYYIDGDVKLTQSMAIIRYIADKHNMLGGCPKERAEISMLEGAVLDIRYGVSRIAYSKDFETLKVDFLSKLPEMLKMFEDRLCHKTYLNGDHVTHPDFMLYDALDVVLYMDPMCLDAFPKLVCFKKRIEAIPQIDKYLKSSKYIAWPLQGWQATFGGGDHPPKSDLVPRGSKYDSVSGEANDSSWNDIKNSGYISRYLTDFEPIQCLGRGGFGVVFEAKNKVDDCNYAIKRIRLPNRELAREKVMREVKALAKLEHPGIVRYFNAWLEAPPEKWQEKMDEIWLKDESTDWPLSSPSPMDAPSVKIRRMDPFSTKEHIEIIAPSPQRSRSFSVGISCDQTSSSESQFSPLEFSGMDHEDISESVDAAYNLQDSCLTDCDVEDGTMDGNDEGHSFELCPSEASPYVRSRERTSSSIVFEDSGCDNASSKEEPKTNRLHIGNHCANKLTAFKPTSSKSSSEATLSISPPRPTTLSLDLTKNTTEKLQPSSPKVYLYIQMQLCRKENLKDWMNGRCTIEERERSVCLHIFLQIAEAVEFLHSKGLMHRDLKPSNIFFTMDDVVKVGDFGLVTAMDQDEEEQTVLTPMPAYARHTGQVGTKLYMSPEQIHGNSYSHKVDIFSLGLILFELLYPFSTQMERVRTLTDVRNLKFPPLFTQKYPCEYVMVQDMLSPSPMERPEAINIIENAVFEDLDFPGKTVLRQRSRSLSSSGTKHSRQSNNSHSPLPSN
Method: Activity of PERK kinase was determined spectroscopically using a coupled pyruvate kinase/lactate dehydrogenase assay that continuously monitors the ATP hydrolysis-dependent oxidation of NADH (e.g., Schindler et al. Science (2000) 289: 1938-1942). Assays were conducted in 384-well plates ([…] final volume) using 10 nM PERK (from Beryllium), 0.25 mg/mL Myelin Basic Protein substrate, 1.5 units pyruvate kinase, 2.1 units lactate dehydrogenase, 1 mM phosphoenol pyruvate, 0.28 mM NADH and 1 mM ATP in assay buffer (100 mM Tris, pH 7.5, 15 mM MgCl2, 0.5 mM DTT, 0.004% (w/v) BSA, and 0.004% Triton X-100). Inhibition of PERK was measured by adding serial diluted test compound (final assay concentration of 1% DMSO). A decrease in absorption at 340 nm was monitored continuously for 6 hours at 30° C. on a multi-mode microplate reader (BioTek). The reaction rate was calculated using the 2-3 h time frame. The reaction rate at each concentration of compound was converted to percent inhibition using controls (i.e., reaction with no test compound and reaction with a known inhibitor) and IC50 values were calculated using software routines in Prism (GraphPad software).

[2] = test system: ATF4 in H929 multiple myeloma cells; assay: H929 ATF4 ELISA assay; format: cell-based; settings: four hours, relative to vehicle treated control
Method: H929 multiple myeloma cells (catalog #CRL-9068) were obtained from the American Type Culture Collection (ATTC, Manassas, VA). Briefly, cells were grown in RPMI-1640 medium supplemented with 20% heat-inactivated fetal bovine serum (catalog #A3840002, ThermoFisher Scientific, Waltham, MA), 1% Penicillin/Streptomycin/L-Glutamine (catalog #10378016, ThermoFisher Scientific, Waltham, MA), and 0.05 mM 2-mercaptoethanol (catalog #21985-023, ThermoFisher Scientific, Waltham, MA) at 37° C., 5% CO2, and 95% humidity. Cells were expanded until reaching one million five hundred thousand cells per mL at which time they were sub-cultured or harvested for assay use. One million five hundred thousand cells per well in 1 mL complete growth medium were dispensed into 12-well plates and incubated overnight. A serial dilution of test compound was added, and cells were incubated at 37° C., 5% CO2, and 95% for four hours. Cells were lysed then ATF4 levels were measured using an ELISA assay (Proteintech, Rosemont, IL). Absorbance is measured at 450 nm and 544 nM using a Synergy2 or equivalent reader (Biotek, Winooski VT). Data were analyzed using PRISM software (Graphpad, San Diego, CA) to calculate fold stimulation of cellular ATF4 relative to vehicle treated control.

Row | Compound | IC50 [1] | IC50 (CCRF-CEM leukemia cells) | IC50 (GCN2 kinase) | IC50 (PERK enzyme) | H929 NS ATF4 ELISA (ATF4 stim) [2]
1 | CC(=O)OCc1cc(Cl)cc(S(=O)(=O)Nc2cccc(-c3cn(C)c4ncnc(N)c34)c2F)c1Cl [Example 1, 3-(N-(3-(4-amino-7-methyl-7H-pyrrolo[2,3-d]pyrimidin-5-yl)-2-fluorophenyl)sulfamoyl)-2,5-dichlorobenzyl acetate] | 100 to 500 nM | 100 to 500 nM | 1000 to 10000 nM | ≤ 100 nM | 
2 | COCCn1cc(-c2cccc(NS(=O)(=O)c3cc(Cl)cc(CO)c3Cl)c2F)c2c(N)ncnc21 [Example 4] | ≤ 100 nM | ≤ 100 nM | ≤ 100 nM | ≤ 100 nM | +++ (an ATF4 stim greater than 10 fold and less than or equal to 20 fold)
3 | Cn1cc(-c2cccc(NS(=O)(=O)c3cccc(CO)c3Cl)c2F)c2c(N)ncnc21 [Example 5] | 100 to 500 nM | 1000 to 10000 nM | 1000 to 10000 nM | ≤ 100 nM | ++ (an ATF4 stim greater than 5-fold and less than or equal to 10 fold)
4 | Cn1cc(-c2cc(F)cc(NS(=O)(=O)c3cc(Cl)cc(CO)c3Cl)c2)c2c(N)ncnc21 [Example 6] | 100 to 500 nM | 500 to 1000 nM | 100 to 500 nM | ≤ 100 nM | 
5 | Cn1cc(-c2cc(NS(=O)(=O)c3cc(Cl)cc(CO)c3Cl)cc(F)c2F)c2c(N)ncnc21 [Example 7] | 100 to 500 nM | 500 to 1000 nM | 100 to 500 nM | ≤ 100 nM | 
6 | Nc1ncnc2c1c(-c1cccc(NS(=O)(=O)c3cc(Cl)cc(CO)c3Cl)c1F)cn2C1CC1 [Example 8] | ≤ 100 nM | ≤ 100 nM | ≤ 100 nM | ≤ 100 nM | +++ (an ATF4 stim greater than 10 fold and less than or equal to 20 fold)
7 | CC(=O)OCc1cc(Cl)cc(S(=O)(=O)Nc2cccc(-c3cn(C4COC4)c4ncnc(N)c34)c2F)c1Cl [Example 9] | ≤ 100 nM | 100 to 500 nM | 1000 to 10000 nM | ≤ 100 nM | 
8 | Nc1ncnc2c1c(-c1cccc(NS(=O)(=O)c3cc(Cl)cc(CO)c3Cl)c1F)cn2C1COC1 [Example 10] | ≤ 100 nM | ≤ 100 nM | ≤ 100 nM | ≤ 100 nM | +++ (an ATF4 stim greater than 10 fold and less than or equal to 20 fold)
9 | Nc1nccc2scc(-c3cccc(NS(=O)(=O)c4cc(Cl)cc(CO)c4Cl)c3F)c12 [Example 11] | 1000 to 10000 nM | 500 to 1000 nM | 100 to 500 nM |  | 
10 | Nc1nccc2occ(-c3cccc(NS(=O)(=O)c4cc(Cl)cc(CO)c4Cl)c3F)c12 [Example 12] | 1000 to 10000 nM | 1000 to 10000 nM | 100 to 500 nM |  | 
11 | CC(C)(C)n1cc(-c2cccc(NS(=O)(=O)c3cc(Cl)cc(CO)c3Cl)c2F)c2c(N)ncnc21 [Example 13] | 100 to 500 nM | 100 to 500 nM | 100 to 500 nM | ≤ 100 nM | 
12 | Nc1ncnc2c1c(-c1cccc(NS(=O)(=O)c3cc(Cl)cc(CO)c3Cl)c1F)cn2C1CCNCC1 [Example 15] | 500 to 1000 nM | 100 to 500 nM | ≤ 100 nM | ≤ 100 nM | 
13 | Nc1ncnc2c1c(-c1cccc(NS(=O)(=O)c3cc(Cl)cc(CO)c3Cl)c1F)cn2C1CNC1 [Example 16] | 100 to 500 nM | 500 to 1000 nM | ≤ 100 nM | ≤ 100 nM | 
14 | CN1CCC(n2cc(-c3cccc(NS(=O)(=O)c4cc(Cl)cc(CO)c4Cl)c3F)c3c(N)ncnc32)CC1 [Example 17] | ≤ 100 nM | ≤ 100 nM |  |  | +++ (an ATF4 stim greater than 10 fold and less than or equal to 20 fold)
15 | Cn1cc(-c2cccc(NS(=O)(=O)c3cc(Cl)cc(CO)c3Cl)c2F)c2c(N)nccc21 [Example 18] | 1000 to 10000 nM | 1000 to 10000 nM | 1000 to 10000 nM | ≤ 100 nM | 
16 | Cn1cc(-c2cccc(NS(=O)(=O)c3cc(F)cc(CO)c3Cl)c2F)c2c(N)ncnc21 [Example 19] | ≤ 100 nM | 100 to 500 nM | 100 to 500 nM | ≤ 100 nM | 
17 | Cn1cc(-c2cccc(NS(=O)(=O)c3cc(Cl)cc(CO)c3Cl)c2Cl)c2c(N)ncnc21 [Example 20] | 100 to 500 nM | 100 to 500 nM | 100 to 500 nM | ≤ 100 nM | 
18 | Cn1cc(-c2cccc(NS(=O)(=O)c3cc(Cl)cc(CO)c3F)c2F)c2c(N)ncnc21 [Example 22] | 100 to 500 nM | 1000 to 10000 nM | 100 to 500 nM | ≤ 100 nM | 
19 | [2H]C([2H])([2H])n1cc(-c2cccc(NS(=O)(=O)c3cc(Cl)cc(CO)c3Cl)c2F)c2c(N)ncnc21 [Example 27] | ≤ 100 nM | ≤ 100 nM | ≤ 100 nM | ≤ 100 nM | 
20 | COCc1cc(Cl)cc(S(=O)(=O)Nc2cccc(-c3cn(C)c4ncnc(N)c34)c2F)c1Cl [Example 29] | 100 to 500 nM | 1000 to 10000 nM | 100 to 500 nM | ≤ 100 nM | 
21 | CCC(C)(C)C(=O)OCc1cc(Cl)cc(S(=O)(=O)Nc2cccc(-c3cn(C)c4ncnc(N)c34)c2F)c1Cl [Example 30] | 500 to 1000 nM | 1000 to 10000 nM | 1000 to 10000 nM | 1000 to 10000 nM | 
22 | Cn1cc(-n2cc(-c3cccc(NS(=O)(=O)c4cc(Cl)cc(CO)c4Cl)c3F)c3c(N)ncnc32)cn1 [Example 31] | ≤ 100 nM | ≤ 100 nM | ≤ 100 nM | ≤ 100 nM | 
23 | Nc1ncnc2c1c(-c1cccc(NS(=O)(=O)c3cc(Cl)cc(CO)c3Cl)c1F)cn2-c1cn[nH]c1 [Example 32] | 100 to 500 nM | ≤ 100 nM | ≤ 100 nM | ≤ 100 nM | 
24 | Cn1cc(-c2cccc(NS(=O)(=O)c3cc(Cl)cc(CO)c3Br)c2F)c2c(N)ncnc21 [Example 33] | ≤ 100 nM | ≤ 100 nM | ≤ 100 nM | ≤ 100 nM | 

— patent US20230382915A1, “GCN2 AND PERK KINASE INHIBITORS AND METHODS OF USE THEREOF” (Deciphera Pharmaceuticals, LLC, priority 2021, published 2023)
